IC50 and inhibition data for 17 compounds are collected here from patent US10519134B2, “Pyrazole compounds and methods of making and using same” (Lundbeck La Jolla Research Center, Inc., priority 2015, dated 2019).

By IC50 is commonly meant the concentration at which inhibition is half-maximal. Read a high IC50 as weaker potency.

Common to all, as to assay type: biochemical
For one assay, the target named is T1, FAAH (Mus musculus, UniProt O08914).
T1 construct: Proteomes (mouse brain membrane fraction or cell lysates); from tissue; host or cells: mouse brain membrane fraction (or cell lysates)
T1 sequence (O08914 1-579): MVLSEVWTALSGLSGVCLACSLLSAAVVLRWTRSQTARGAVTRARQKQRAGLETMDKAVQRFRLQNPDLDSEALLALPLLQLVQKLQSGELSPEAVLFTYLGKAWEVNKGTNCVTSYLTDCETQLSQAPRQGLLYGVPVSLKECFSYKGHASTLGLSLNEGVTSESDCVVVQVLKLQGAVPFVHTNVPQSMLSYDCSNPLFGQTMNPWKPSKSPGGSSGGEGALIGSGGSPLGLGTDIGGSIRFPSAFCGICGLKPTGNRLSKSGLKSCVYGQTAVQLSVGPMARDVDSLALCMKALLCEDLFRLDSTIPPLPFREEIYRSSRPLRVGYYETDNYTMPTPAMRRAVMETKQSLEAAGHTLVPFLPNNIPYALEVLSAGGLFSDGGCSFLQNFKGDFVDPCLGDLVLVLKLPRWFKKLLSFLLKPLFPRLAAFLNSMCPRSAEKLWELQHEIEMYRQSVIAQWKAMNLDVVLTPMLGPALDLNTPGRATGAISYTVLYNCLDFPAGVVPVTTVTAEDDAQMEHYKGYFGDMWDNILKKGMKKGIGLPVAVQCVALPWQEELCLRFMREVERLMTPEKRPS
The assay can be described thus: In vitro competitive activity-based protein profiling (mouse), FAAH gel band. Particulars: for IC50: mouse; for inhibition at 1 µM: read-out: FAAH % inh. 1 μM. The gist of the method: (§1)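 Gel-based competitive ABPP: proteome 1.0 mg/mL, inhibitor 30 min 37 °C, then FP-Rh or HT-01 probe (stock 50 μM) 30 min 37 °C; SDS quench, SDS-PAGE, in-gel fluorescence of the enzyme band quantified.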

The target of assay [1] is T2, MAGL (Homo sapiens, UniProt Q99685).
T2 construct: Proteomes (human prefrontal cortex or cell membrane fractions); from tissue; host or cells: human prefrontal cortex (or cell membrane fractions)
T2 sequence (Q99685 1-303): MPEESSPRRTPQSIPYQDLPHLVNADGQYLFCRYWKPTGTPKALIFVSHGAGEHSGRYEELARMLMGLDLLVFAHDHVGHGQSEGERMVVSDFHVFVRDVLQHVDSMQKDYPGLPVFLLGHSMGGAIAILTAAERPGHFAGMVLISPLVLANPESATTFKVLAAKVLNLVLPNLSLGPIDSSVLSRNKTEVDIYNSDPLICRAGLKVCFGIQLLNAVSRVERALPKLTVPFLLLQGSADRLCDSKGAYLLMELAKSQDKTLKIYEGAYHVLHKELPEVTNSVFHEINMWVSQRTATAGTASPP
The assay can be described thus: In vitro competitive activity-based protein profiling (human), MAGL gel band. The method, then: In Vitro Competitive Activity-Based Protein Profiling (Human).
Proteomes (human prefrontal cortex or cell membrane fractions) (50 μL, 1.0-2.0 mg/mL total protein concentration) were preincubated with varying concentrations of inhibitors at 37° C. After 30 min, FP-Rh or JW912 (1.0 μL, 50 μM in DMSO) was added and the mixture was incubated for another 30 min at room temperature. Reactions were quenched with SDS loading buffer (15 μL—4×) and run on SDS-PAGE. Following gel imaging, serine hydrolase activity was determined by measuring fluorescent intensity of gel bands corresponding to MAGL using ImageJ 1.49k software.

The target of assay [2] is T3, MAGL (Mus musculus, UniProt O35678).
T3 construct: Proteomes (mouse brain membrane fraction or cell lysates); from tissue; host or cells: mouse brain membrane fraction (or cell lysates)
T3 sequence (O35678 1-303): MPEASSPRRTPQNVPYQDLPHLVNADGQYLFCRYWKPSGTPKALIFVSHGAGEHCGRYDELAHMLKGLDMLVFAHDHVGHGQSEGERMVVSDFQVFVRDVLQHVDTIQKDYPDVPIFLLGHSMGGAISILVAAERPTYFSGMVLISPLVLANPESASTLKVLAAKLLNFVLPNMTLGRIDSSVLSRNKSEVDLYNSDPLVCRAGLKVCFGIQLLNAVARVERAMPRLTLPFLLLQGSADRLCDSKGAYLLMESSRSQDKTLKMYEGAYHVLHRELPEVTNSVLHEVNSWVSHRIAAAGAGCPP
The assay can be described thus: In vitro competitive activity-based protein profiling (mouse), MAGL gel band. Particulars: for IC50: mouse; for inhibition at 1 µM: read-out: MAGL % inh. 1 μM. The method in brief: as §1

The structures appear in SMILES notation. Bounds are passed on as bounds.

With `Cc1ccc(CN2CCN(C(=O)n3ccc(NS(C)(=O)=O)n3)CC2)c(N2CCCC2)c1` [Example 137, N-(1-(4-(4-methyl-2-(pyrrolidin-1-yl)benzyl)piperazine-1-carbonyl)-1H-pyrazol-3-yl) methanesulfonamide], the IC50 is 1000 to 10000 nM on FAAH, ≤ 100 nM on MAGL [1] and 100 to 1000 nM on MAGL [2]. Moreover, the inhibition at 1 µM at FAAH was 0 to 25%; on MAGL [2], ≥ 75%.

For `CS(=O)(=O)Nc1ccn(C(=O)N2CCN(Cc3ccc(C(F)(F)F)cc3N3CCOCC3)CC2)n1` [Example 140, N-(1-(4-(2-morpholino-4-(trifluoromethyl)benzyl)piperazine-1-carbonyl)-1H-pyrazol-3-yl) methanesulfonamide], the IC50 at FAAH was 1000 to 10000 nM; at MAGL [1] it was ≤ 100 nM; at MAGL [2], 100 to 1000 nM. Moreover, the inhibition at 1 µM was 0 to 25% at FAAH and ≥ 75% on MAGL [2].

As to `CS(=O)(=O)Nc1ccn(C(=O)N2CCC3(CCCN3Cc3ccc(N4CCCC4)c(C(F)(F)F)c3)CC2)n1` [Example 159, N-(1-(1-(4-(pyrrolidin-1-yl)-3-(trifluoromethyl)benzyl)-1,8-diazaspiro[4.5]decane-8-carbonyl)-1H-pyrazol-3-yl) methanesulfonamide], the inhibition at 1 µM on FAAH is 0 to 25%; on MAGL [2], ≥ 75%. The same compound had an IC50 at MAGL [1] of 100 to 1000 nM.

With `CS(=O)(=O)Nc1ccn(C(=O)N2CCN(Cc3ccc(N4CCCC4)c(Cl)c3)CC2)n1` [Example 166, N-(1-(4-(3-chloro-4-(pyrrolidin-1-yl)benzyl)piperazine-1-carbonyl)-1H-pyrazol-3-yl) methanesulfonamide], the inhibition at 1 µM was 0 to 25% at FAAH and ≥ 75% on MAGL [2]. Besides, on MAGL [1], the half-maximal inhibitory concentration (IC50) is ≤ 100 nM.

Consider `CS(=O)(=O)Nc1ccn(C(=O)N2CCN(Cc3ccc(N4CCOCC4)c(C(F)(F)F)c3)CC2)n1` [Example 167, N-[1-[(4-[[4-(morpholin-4-yl)-3-(trifluoromethyl)phenyl]methyl]piperazin-1-yl)carbonyl]-1H-pyrazol-3-yl] methanesulfonamide], for which the inhibition at 1 µM is 0 to 25% at FAAH and ≥ 75% at MAGL [2]. Moreover, on MAGL [1], the IC50 is ≤ 100 nM.

As to `CS(=O)(=O)Nc1ccn(C(=O)N2CCN(Cc3ccc(C(F)(F)F)cc3N3CCN(C(N)=O)CC3)CC2)n1` [Example 171, 4-(2-((4-(3-(methylsulfonamido)-1H-pyrazole-1-carbonyl)piperazin-1-yl)methyl)-5-(trifluoromethyl)phenyl)piperazine-1-carboxamide], the inhibition at 1 µM on FAAH was 0 to 25%; on MAGL [2] it was ≥ 75%. On MAGL [1], the IC50 is ≤ 100 nM.

Regarding `CS(=O)(=O)Nc1ccn(C(=O)N2CCN(Cc3ccc(C(F)(F)F)cc3N3CCN(C4CC4)CC3)CC2)n1` [Example 172, N-(1-(4-(2-(4-cyclopropylpiperazin-1-yl)-4-(trifluoromethyl)benzyl)piperazine-1-carbonyl)-1H-pyrazol-3-yl) methanesulfonamide], the inhibition at 1 µM on FAAH is 0 to 25%; at MAGL [2], ≥ 75%. Besides, the half-inhibitory concentration (IC50) on MAGL [1] was ≤ 100 nM.

Consider `CS(=O)(=O)Nc1ccn(C(=O)N2CCN(Cc3ccc(C(F)(F)F)cc3N3CCN(S(C)(=O)=O)CC3)CC2)n1` [Example 173], for which the inhibition at 1 µM at FAAH is 0 to 25%; at MAGL [2] it was ≥ 75%. Besides, the IC50 on MAGL [1] is ≤ 100 nM.

For the compound `CC(=O)N1CCN(c2cc(C(F)(F)F)ccc2CN2CCN(C(=O)n3ccc(NS(C)(=O)=O)n3)CC2)CC1` [Example 174, N-(1-(4-(2-(4-acetylpiperazin-1-yl)-4-(trifluoromethyl)benzyl)piperazine-1-carbonyl)-1H-pyrazol-3-yl) methanesulfonamide], the figures for the inhibition at 1 µM on FAAH and on MAGL [2] were 0 to 25% and ≥ 75%, respectively. Further, the IC50 at MAGL [1] was ≤ 100 nM.

`CS(=O)(=O)Nc1ccn(C(=O)N2CCC3(CCCN3Cc3ccc(C(F)(F)F)cc3N3CCC(F)CC3)CC2)n1` [Example 178, N-(1-(1-(2-(4-fluoropiperidin-1-yl)-4-(trifluoromethyl)benzyl)-1,8-diazaspiro[4.5]decane-8-carbonyl)-1H-pyrazol-3-yl) methanesulfonamide]: the inhibition at 1 µM at FAAH is 0 to 25%; on MAGL [2], ≥ 75%. For the same compound, at MAGL [1], the concentration for half-maximal inhibition (IC50) was ≤ 100 nM.

For `CS(=O)(=O)Nc1ccn(C(=O)N2CCN(Cc3cc(C(F)(F)F)ccc3N3CCCC3)CC2)n1` [Example 180, N-(1-(4-(2-(pyrrolidin-1-yl)-5-(trifluoromethyl)benzyl)piperazine-1-carbonyl)-1H-pyrazol-3-yl) methanesulfonamide], the inhibition at 1 µM at FAAH was 0 to 25%; on MAGL [2] it was ≥ 75%. Further, the half-inhibitory concentration (IC50) at MAGL [1] is ≤ 100 nM.

For the compound `CS(=O)(=O)Nc1ccn(C(=O)N2CCN(Cc3ccc(C(F)(F)F)cc3N3CCN(C(=O)N4CCC4)CC3)CC2)n1` [Example 187, N-(1-(4-(2-(4-(azetidine-1-carbonyl)piperazin-1-yl)-4-(trifluoromethyl)benzyl)piperazine-1-carbonyl)-1H-pyrazol-3-yl) methanesulfonamide], the inhibition at 1 µM was 0 to 25% at FAAH and ≥ 75% on MAGL [2]. Also, on MAGL [1], the 50% inhibitory concentration (IC50) was 100 to 1000 nM.

As to `CC1CCCN1c1cc(C(F)(F)F)ccc1CN1CCN(C(=O)n2ccc(NS(C)(=O)=O)n2)CC1` (stereo not shown) [Example 189, N-(1-(4-(2-(2-methylpyrrolidin-1-yl)-4-(trifluoromethyl)benzyl)piperazine-1-carbonyl)-1H-pyrazol-3-yl) methanesulfonamide], the inhibition at 1 µM is 0 to 25% at FAAH and ≥ 75% at MAGL [2]. Also, the IC50 at MAGL [1] is ≤ 100 nM.

As for `CS(=O)(=O)Nc1ccn(C(=O)N2CCN(Cc3ccc(C(F)(F)F)cc3N3CCC(C(=O)O)C3)CC2)n1` (stereo not shown) [Example 190, 1-(2-((4-(3-(methylsulfonamido)-1H-pyrazole-1-carbonyl)piperazin-1-yl)methyl)-5-(trifluoromethyl)phenyl) pyrrolidine-3-carboxylic acid], the inhibition at 1 µM was 0 to 25% at FAAH and ≥ 75% on MAGL [2]. At MAGL [1], the IC50 was ≤ 100 nM.

For the compound `CC1CCCN1c1cc(CN2CCN(C(=O)n3ccc(NS(C)(=O)=O)n3)CC2)cc(C(F)(F)F)c1` (stereo not shown) [Example 191, N-(1-(4-(3-(2-methylpyrrolidin-1-yl)-5-(trifluoromethyl)benzyl)piperazine-1-carbonyl)-1H-pyrazol-3-yl) methanesulfonamide], the inhibition at 1 µM is 0 to 25% at FAAH and ≥ 75% on MAGL [2]. For the same compound, the IC50 at MAGL [1] is ≤ 100 nM.

With `CS(=O)(=O)Nc1ccn(C(=O)N2CCN(Cc3cc(N4CCC4)cc(C(F)(F)F)c3)CC2)n1` [Example 192, N-(1-(4-(3-(azetidin-1-yl)-5-(trifluoromethyl)benzyl)piperazine-1-carbonyl)-1H-pyrazol-3-yl) methanesulfonamide], the inhibition at 1 µM on FAAH was 0 to 25%; on MAGL [2], ≥ 75%. Also, the 50% inhibitory concentration (IC50) on MAGL [1] is ≤ 100 nM.

On to `CS(=O)(=O)Nc1ccn(C(=O)N2CCC3(CCCN3Cc3cc(Cl)cc(N4CCCC4)c3)CC2)n1` [Example 193, N-(1-(1-(3-chloro-5-(pyrrolidin-1-yl)benzyl)-1,8-diazaspiro[4.5]decane-8-carbonyl)-1H-pyrazol-3-yl) methanesulfonamide], for which the inhibition at 1 µM on FAAH is 0 to 25%; on MAGL [2], ≥ 75%. On MAGL [1], the IC50 is ≤ 100 nM.
